# In US20050154033A1, “Methods of using zonisamide as an adjunctive therapy for partial seizures” (Eisai Co., Ltd, priority 2004, published 2005):
# Assays:
# [1] = set-up: species or system patients (human); conditions: human, in vivo
# From the text: The pharmacovigilance data that were collected, reviewed and analyzed provided the following information in respect of the incidence of NMS. To date, a total of 3 cases (two adult and one pediatric) fulfill the criteria of potential neuroleptic malignant syndrome. These cases were reviewed in detail for evaluation of possible safety signals. They were all deemed serious, and in all cases, the patients recovered with appropriate treatment.
# Cases ZONI000813 and ZONI000929 are adult cases from Japan. In both cases the patients carried a diagnosis of Parkinson's disease (PD) and were enrolled in a double blind, placebo controlled […] study of zonisamide as a potential treatment for PD (Protocol AD810N-202-1). […]
# Estimates of exposure, based upon retail and mail order prescriptions, indicate that the number of unique patients taking zonisamide capsules in the U.S. is about 37,276 (total prescriptions per year/average number of prescriptions per patient per year less a calculated percentage decrease based on estimated annual dropouts) in the time between approval in 2000 and December 2002 . […] Similarly, the incidences of NMS estimated herein are unlikely to be higher than calculated. Based on the exposure data and number of NMS cases, the incidence of NMS in the U.S. and Japan is calculated to be about 1:37,276 unique patients and 1:592,588 unique patients, respectively.
# sodium channels = conditions: in vitro; cited from earlier work
# T-type Ca^2+ currents = conditions: in vitro; cited from earlier work
# [2] = test system: GABA/benzodiazepine receptor ionophore complex; conditions: in vitro; does not produce changes in chloride flux; cited from earlier work
# [3] = test system: cultured mouse spinal cord neurons; conditions: 10-30 μg/mL, cited from earlier work
# rat hippocampal slices = conditions: 10-30 μg/mL; cited from earlier work
# [4] = test system: dopaminergic and serotonergic neurotransmission; conditions: in vivo microdialysis; cited from earlier work
# [5] = upon reaching a stable dose or following dosage adjustment; cited from earlier work
# carbonic anhydrase = conditions: relative to acetazolamide; cited from earlier work
compound,measurement,setting,value
"NS(=O)(=O)Cc1noc2ccccc12 [zonisamide, 1,2-benzisoxazole-3-methanesulfonamide]",cases fulfilling the criteria of potential neuroleptic malignant syndrome,[1],3 cases
same,incidence of NMS,[1],"about 1:37,276 unique patients"
same,effect on sodium channels,sodium channels,blocks sodium channels
same,effect on T-type Ca2+ currents,T-type Ca^2+ currents,"reduces voltage-dependent, transient inward currents"
same,binding to GABA/benzodiazepine receptor ionophore complex,[2],binds to the GABA/benzodiazepine receptor ionophore complex in an allosteric fashion
same,postsynaptic GABA or glutamate responses,[3]; cultured mouse spinal cord neurons,without affecting
same,synaptically-driven electrical activity,[3],suppresses synaptically-driven electrical activity
same,neuronal or glial uptake of [3H]-GABA,rat hippocampal slices,without affecting
same,effect on neurotransmission,[4],facilitates both dopaminergic and serotonergic neurotransmission
same,time required to achieve steady-state levels,[5],up to two weeks
same,carbonic anhydrase inhibition compared to acetazolamide,carbonic anhydrase,1/50
